Laboratory results published in patent publication US11746098B2, “Proteasome activity enhancing compounds” (Proteostasis Therapeutics, Inc., priority 2018, dated 2023).

Each compound was assayed against USP14 (Homo sapiens, UniProt P54578) (assay: USP14 Inhibition Assay). Conditions: average value from a minimum of two experimental determinations, read-out: IC50 Category.
Format: biochemical
Source text: The activity of the compound described herein to inhibit USP14 can be measured using previously described methodology [B. H. Lee et al. Nature 2010, 467 (9), 179, the contents of which are expressly incorporated by reference herein].
Example 6: USP14 Inhibition Assay
`Cc1cc(C(=O)CN2CCCCC2)c(C)n1[C@H]1CC[C@@H](C(=O)O)CC1` [Compound 46, cis-4-(2,5-Dimethyl-3-(2-(piperidin-1-yl)acetyl)-1H-pyrrol-1-yl)cyclohexanecarboxylic acid] was tested, and the IC50 was > 5 µM.
With `Cc1cc(C(=O)CN2CCC(O)CC2)n(C)c1-c1ccc(Cl)cc1` [Compound 95, 1-(5-(4-Chlorophenyl)-1,4-dimethyl-1H-pyrrol-2-yl)-2-(4-hydroxypiperidin-1-yl)ethanone] the IC50 was < 0.5 µM.
In the case of `Cc1cc(C(=O)CN2CCCCC2)c(C)n1[C@H]1CC[C@@H](C(N)=O)CC1` [Compound 103, cis-4-(2,5-Dimethyl-3-(2-(piperidin-1-yl)acetyl)-1H-pyrrol-1-yl)cyclohexanecarboxamide], the IC50 is reported as > 5 µM.
`Cc1cc(C(=O)CN2CCC(OCC(=O)NC3CC3)CC2)c(C)n1-c1ccc(F)cc1` [Compound 75, N-Cyclopropyl-2-((1-(2-(1-(4-fluorophenyl)-2,5-dimethyl-1H-pyrrol-3-yl)-2-oxoethyl)piperidin-4-yl)oxy)acetamide] gave an IC50 of 0.5 to 5 µM.
For `Cc1cc(C(=O)CN2CCCC2)c(C)n1-c1cc(F)cc(F)c1` [Compound 22, 1-(1-(3,5-Difluorophenyl)-2,5-dimethyl-1H-pyrrol-3-yl)-2-(pyrrolidin-1-yl)ethanone], the IC50 was > 5 µM.
In the case of `Cc1cc(C(=O)CN2CCC(O)CC2)c(C)n1-c1cc(F)cc(F)c1` [Compound 15, 1-(1-(3,5-Difluorophenyl)-2,5-dimethyl-1H-pyrrol-3-yl)-2-(4-hydroxypiperidin-1-yl)ethanone], the IC50 is reported as > 5 µM.
`Cc1cc(C(=O)CN2CCC(N(C)C)C2)c(C)n1-c1ccc(Cl)cc1` (stereo not shown) [Compound 55, 1-(1-(4-Chlorophenyl)-2,5-dimethyl-1H-pyrrol-3-yl)-2-(3-(dimethylamino)pyrrolidin-1-yl)ethanone] showed an IC50 of 0.5 to 5 µM.
`Cc1cc(C(=O)CNCC(O)CO)c(C)n1-c1ccc(C#N)cc1` (stereo not shown) [Compound 134, 4-(3-(2-((2,3-Dihydroxypropyl)amino)acetyl)-2,5-dimethyl-1H-pyrrol-1-yl)benzonitrile] was tested, and the IC50 was 0.5 to 5 µM.
`COc1cc(NS(=O)(=O)c2ccc(-n3c(C)cc(C(=O)CN4CCCC4)c3C)cc2)nc(OC)n1` [Compound 4, N-(2,6-Dimethoxypyrimidin-4-yl)-4-(2,5-dimethyl-3-(2-(pyrrolidin-1-yl)acetyl)-1H-pyrrol-1-yl)benzenesulfonamide] was tested, and the IC50 was > 5 µM.
`Cc1cc(C(=O)CN2CCCC2)n(C)c1-c1ccc(Cl)cc1` [Compound 92, 1-(5-(4-Chlorophenyl)-1,4-dimethyl-1H-pyrrol-2-yl)-2-(pyrrolidin-1-yl)ethanone] was tested, and the IC50 was < 0.5 µM.
In the case of `Cc1cc(C(=O)CN[C@H](C)C2CCCCC2)c(C)n1-c1ccc(Cl)cc1` [Compound 11, (R)-1-(1-(4-Chlorophenyl)-2,5-dimethyl-1H-pyrrol-3-yl)-2-((1-cyclohexylethyl)amino)ethan-one], the IC50 is reported as > 5 µM.
With `Cc1cc(C(=O)CN2CCC(O)CC2)c(C)n1-c1ccc(C(F)(F)F)cc1` [Compound 21, 1-(2,5-Dimethyl-1-(4-(trifluoromethyl)phenyl)-1H-pyrrol-3-yl)-2-(4-hydroxypiperidin-1-yl)ethanone] the IC50 was > 5 µM.
For `Cc1cc(C(=O)CC2CCNCC2)c(C)n1-c1ccc(Cl)cc1` [Compound 39, 1-(1-(4-Chlorophenyl)-2,5-dimethyl-1H-pyrrol-3-yl)-2-(piperidin-4-yl)ethanone], the IC50 was > 5 µM.
In the case of `Cc1cc(C(=O)CN2CCCCC2)c(C)n1-c1ccc(C#N)cc1` [Compound 81, 4-(2,5-Dimethyl-3-(2-(piperidin-1-yl)acetyl)-1H-pyrrol-1-yl)benzonitrile], the IC50 is reported as < 0.5 µM.
With `Cc1cc(C(=O)CNCCO)c(C)n1-c1ccc(C#N)cc1` [Compound 77, 4-(3-(2-((2-Hydroxyethyl)amino)acetyl)-2,5-dimethyl-1H-pyrrol-1-yl)benzonitrile] the IC50 was 0.5 to 5 µM.
For `Cc1cc(C(=O)C[n+]2ccccc2)c(C)n1-c1ccc(Cl)cc1` [Compound 99, 1-(2-(1-(4-Chlorophenyl)-2,5-dimethyl-1H-pyrrol-3-yl)-2-oxoethyl)pyridin-1-ium Chloride], the IC50 was < 0.5 µM.
`Cc1cc(C(=O)CN2CCC(O)CC2)c(C)n1-c1ccc(C(=O)OCc2ccccc2)cc1` [Compound 111, trans-Benzyl 4-(3-(2-(4-hydroxypiperidin-1-yl)acetyl)-2,5-dimethyl-1H-pyrrol-1-yl)benzoate] was tested, and the IC50 was > 5 µM.
For `Cc1cc(C(=O)CNCCOCc2ccccc2)c(C)n1-c1ccc(C#N)cc1` [Compound 42, 4-(3-(2-((2-(Benzyloxy)ethyl)amino)acetyl)-2,5-dimethyl-1H-pyrrol-1-yl)benzonitrile], the IC50 was > 5 µM.
For `Cc1cc(C(=O)CN2CCC(OCC(=O)N3CCCCC3)CC2)c(C)n1-c1ccc(Cl)cc1` [Compound 80, 1-(1-(4-Chlorophenyl)-2,5-dimethyl-1H-pyrrol-3-yl)-2-(4-(2-oxo-2-(piperidin-1-yl)ethoxy)piperidin-1-yl)ethanone], the IC50 was < 0.5 µM.
With `Cc1cc(C=O)c(C)n1-c1ccc(Cl)cc1` [Compound 100, 1-(4-Chlorophenyl)-2,5-dimethyl-1H-pyrrole-3-carbaldehyde] the IC50 was > 5 µM.
Work on `Cc1cc(C(=O)CN2CCCC2)c(C)n1-c1ccc(Br)c(Cl)c1` [Compound 56, 1-(1-(4-Bromo-3-chlorophenyl)-2,5-dimethyl-1H-pyrrol-3-yl)-2-(pyrrolidin-1-yl)ethanone] yielded an IC50 of 0.5 to 5 µM.
For `Cc1cc(C(=O)CN(CCOCc2ccccc2)CC(=O)c2cc(C)n(-c3ccc(C#N)cc3)c2C)c(C)n1-c1ccc(C#N)cc1` [Compound 43, 4,4′-(3,3′-(2,2′-((2-(Benzyloxy)ethyl)azanediyl)bis(acetyl))bis(2,5-dimethyl-1H-pyrrole-3,1-diyl))dibenzonitrile], the IC50 was > 5 µM.
`Cc1cc(C(=O)CN2CCC(CNC(=O)OC(C)(C)C)CC2)c(C)n1-c1ccc(C#N)cc1` [Compound 135, tert-butyl ((1-(2-(1-(4-Cyanophenyl)-2,5-dimethyl-1H-pyrrol-3-yl)-2-oxoethyl)piperidin-4-yl)methyl)carbamate] was tested, and the IC50 was 0.5 to 5 µM.
In the case of `Cc1cc(C(=O)CNC2CCC(C)CC2)c(C)n1-c1ccc(Cl)cc1` (stereo not shown) [Compound 66, 1-(1-(4-Chlorophenyl)-2,5-dimethyl-1H-pyrrol-3-yl)-2-((4-methylcyclohexyl)amino)ethanone], the IC50 is reported as 0.5 to 5 µM.
`Cc1cc(C(=O)CN2CCCCC2)c(C)n1CC(F)(F)F` [Compound 107, 1-(2,5-Dimethyl-1-(2,2,2-trifluoroethyl)-1H-pyrrol-3-yl)-2-(piperidin-1-yl)ethanone] was tested, and the IC50 was > 5 µM.
For `Cc1cc(Cl)cc(C)c1-n1ccc(C(=O)CN2CCCC2)c1` [Compound 23, 1-(1-(4-Chloro-2,6-dimethylphenyl)-1H-pyrrol-3-yl)-2-(pyrrolidin-1-yl)ethanone], the IC50 was > 5 µM.
`COc1ccc(-n2c(C)cc(C(=O)CN3CCC(O)CC3)c2C)cc1F` [Compound 64, 1-(1-(3-Fluoro-4-methoxyphenyl)-2,5-dimethyl-1H-pyrrol-3-yl)-2-(4-hydroxypiperidin-1-yl)ethanone] showed an IC50 of 0.5 to 5 µM.
In the case of `Cc1cc(C(=O)CN2CCCCC2)c(C)n1[C@H]1CC[C@H](C(=O)O)CC1` [Compound 121, trans-4-(2,5-Dimethyl-3-(2-(piperidin-1-yl)acetyl)-1H-pyrrol-1-yl)cyclohexane-1-carboxylic acid], the IC50 is reported as > 5 µM.
For `Cc1cc(C(=O)CN2CCC[C@@H]2C(N)=O)c(C)n1-c1ccc(Cl)cc1` [Compound 3, (R)-1-(2-(1-(4-Chlorophenyl)-2,5-dimethyl-1H-pyrrol-3-yl)-2-oxoethyl)pyrrolidine-2-carboxamide], the IC50 was > 5 µM.
`CC(=O)c1c(CN2CCCCC2)c(C)n(-c2ccc(C#N)cc2)c1C` [Compound 117, 4-(3-Acetyl-2,5-dimethyl-4-(piperidin-1-ylmethyl)-1H-pyrrol-1-yl)benzonitrile] was tested, and the IC50 was > 5 µM.
`Cc1cc(C(=O)CN2CCCCC2)c(C)n1C1CCC(F)(F)CC1` [Compound 76, 1-(1-(4,4-Difluorocyclohexyl)-2,5-dimethyl-1H-pyrrol-3-yl)-2-(piperidin-1-yl)ethanone] gave an IC50 of 0.5 to 5 µM.
